Test results as given in patent US20080125318A1, “Fungicidal Mixtures Containing Enestroburin and at Least One Active Substance from the Group of Azoles” (priority 2004, published 2008).
Read-outs that look alike come from different tables or passages of the source.

How the values were obtained:
Botrytis cinerea = experiment: Activity against the gray mold pathogen Botrytis cinerea in the microtiter test; assay type: cell-based; conditions: day 7 after inoculation, absorption 405 nm
Phytophthora infestans = assay type: cell-based; conditions: day 7 after inoculation, absorption 405 nm
Puccinia recondita = experiment: Protective activity against Puccinia recondita on wheat (brown rust of wheat), greenhouse; assay type: in vivo, Puccinia recondita on wheat seedlings cultivar Kanzler; conditions: sprayed 5 days before inoculation, visual rating

Row | SMILES | Observed efficacy (%) (Botrytis cinerea; 4 ppm single active compound) | Observed efficacy (%) (Phytophthora infestans; 2 ppm single active compound) | Observed efficacy (%) (Phytophthora infestans; 4 ppm single active compound) | Observed efficacy (%) (Puccinia recondita; 16 ppm single active compound) | Observed efficacy (%) (Puccinia recondita; 63 ppm single active compound) | Observed efficacy (%) (Puccinia recondita; 4 ppm single active compound) | Observed efficacy (%) (Botrytis cinerea; 1 ppm single active compound)
1 | CO/C=C(/C(=O)OC)c1ccccc1CO/N=C(C)/C=C/c1ccc(Cl)cc1 [enestroburin (I), methyl 2-{2-[3-(4-chlorophenyl)-1-methylallylideneaminooxymethyl]phenyl}-3-methoxyacrylate] | 48 | 70 | 82 | 22 | 44 |  | 
2 | OC(Cc1ccccc1Cl)(Cn1nc[nH]c1=S)C1(Cl)CC1 (centres unmarked) [prothioconazole (II-19), 2-[2-(1-chlorocyclopropyl)-3-(2-chlorophenyl)-2-hydroxypropyl]-2,4-dihydro[1,2,4]triazol-3-thione] |  |  |  |  |  | 0 | 
3 | Cc1ccc(-c2c(Cl)nc(C#N)n2S(=O)(=O)N(C)C)cc1 [cyazofamid (II-30), 4-chloro-2-cyano-N,N-dimethyl-5-(4-methylphenyl)-1H-imidazole-1-sulfon-amide] | 0 |  |  |  |  |  | 0
